# Source: patent US11807644B2 (PMV Pharmaceuticals, Inc., priority 2020, dated 2023)
# Target: T1, recombinant His-tag Y220C p53 DBD protein (Homo sapiens, UniProt P04637, Y220C)
# T1 construct: recombinant His-tag Y220C p53 DBD protein (amino acids #˜94-312)
# Experiment: In vitro DNA binding activity assay (TR-FRET): binding of His-tag Y220C p53 DBD to biotin-labeled consensus DNA
# Format: biochemical
# Conditions: SC150 = concentration to increase DNA binding by […], His-tag Y220C p53 DBD, biotin-labeled consensus DNA
row,Y220C SC150 (μM),Compound
1,* (* = 0 μM ≤ SC150 < 0.1 μM),"CC(C)(C)N1CC[C@@H](Nc2cccc3c2cc(-c2noc(CNC(=O)c4cnn(C(C)(C)C)c4)n2)n3CC(F)(F)F)[C@H](F)C1 [Compound 402B, 1-tert-butyl-N-{[3-(4-{[(3R,4R)-1-tert-butyl-3-fluoropiperidin-4-yl]amino}-1-(2,2,2-trifluoroethyl)-1H-indol-2-yl)-1,2,4-oxadiazol-5-yl]methyl}-1H-pyrazole-4-carboxamide]"
2,* (* = 0 μM ≤ SC150 < 0.1 μM),"Cn1cc(C(=O)NCc2nc(-c3cc4c(N[C@@H]5CCN(C(C)(C)C)C[C@@H]5F)cccc4n3CC(F)(F)F)no2)cn1 [Compound 405B, N-{[3-(4-{[(3S,4R)-1-tert-butyl-3-fluoropiperidin-4-yl]amino}-1-(2,2,2-trifluoroethyl)-1H-indol-2-yl)-1,2,4-oxadiazol-5-yl]methyl}-1-methyl-1H-pyrazole-4-carboxamide]"
3,* (* = 0 μM ≤ SC150 < 0.1 μM),"Cn1cc(C(=O)NCc2nc(-c3cc4c(N[C@H]5CCN(C(C)(C)C)C[C@H]5F)cccc4n3CC(F)(F)F)no2)cn1 [Compound 406B, N-{[3-(4-{[(3R,4S)-1-tert-butyl-3-fluoropiperidin-4-yl]amino}-1-(2,2,2-trifluoroethyl)-1H-indol-2-yl)-1,2,4-oxadiazol-5-yl]methyl}-1-methyl-1H-pyrazole-4-carboxamide]"
4,* (* = 0 μM ≤ SC150 < 0.1 μM),"CN1CC[C@H](F)[C@H](Nc2cccc3c2cc(-c2noc(CNC(=O)c4cnn(C(C)(C)C)c4)n2)n3CC(F)(F)F)C1 [Compound 408B, 1-tert-butyl-N-{[3-(4-{[(3R,4S)-4-fluoro-1-methylpiperidin-3-yl]amino}-1-(2,2,2-trifluoroethyl)-1H-indol-2-yl)-1,2,4-oxadiazol-5-yl]methyl}-1H-pyrazole-4-carboxamide]"
5,* (* = 0 μM ≤ SC150 < 0.1 μM),"CN1CC[C@@H](F)[C@@H](Nc2cccc3c2cc(-c2noc(CNC(=O)c4cnn(C(C)(C)C)c4)n2)n3CC(F)(F)F)C1 [Compound 409B, Tert-butyl-N-[[3-[4-[[(3S,4R)-4-fluoro-1-methyl-3-piperidyl]amino]-1-(2,2,2-trifluoroethyl)indol-2-yl]-1,2,4-oxadiazol-5-yl]methyl]pyrazole-4-carboxamide]"
6,* (* = 0 μM ≤ SC150 < 0.1 μM),"CN1CC[C@H](F)[C@H](Nc2cccc3c2cc(-c2noc(CNC(=O)c4ccn(C(C)(C)C)c4)n2)n3CC(F)(F)F)C1 [Compound 414B, 1-tert-butyl-N-{[3-(4-{[(3R,4S)-4-fluoro-1-methylpiperidin-3-yl]amino}-1-(2,2,2-trifluoroethyl)-1H-indol-2-yl)-1,2,4-oxadiazol-5-yl]methyl}-1H-pyrrole-3-carboxamide]"
7,* (* = 0 μM ≤ SC150 < 0.1 μM),"CN1CC[C@@H](F)[C@@H](Nc2cccc3c2cc(-c2noc(CNC(=O)c4ccn(C(C)(C)C)c4)n2)n3CC(F)(F)F)C1 [Compound 415B, 1-tert-butyl-N-{[3-(4-{[(3S,4R)-4-fluoro-1-methylpiperidin-3-yl]amino}-1-(2,2,2-trifluoroethyl)-1H-indol-2-yl)-1,2,4-oxadiazol-5-yl]methyl}-1H-pyrrole-3-carboxamide]"
8,* (* = 0 μM ≤ SC150 < 0.1 μM),"COCC(C)(C)n1ccc(C(=O)NCc2nc(-c3cc4c(N[C@H]5CN(C)CC[C@H]5F)cccc4n3CC(F)(F)F)no2)c1 [Compound 418B, N-{[3-(4-{[(3S,4R)-4-fluoro-1-methylpiperidin-3-yl]amino}-1-(2,2,2-trifluoroethyl)-1H-indol-2-yl)-1,2,4-oxadiazol-5-yl]methyl}-1-(1-methoxy-2-methylpropan-2-yl)-1H-pyrrole-3-carboxamide]"

# Second part, the compound before the results:
row,Compound,Y220C SC150 (μM)
1,"CN1CC[C@@H](Nc2cccc3c2cc(-c2noc(CNc4ccn(C(C)(C)C)n4)n2)n3CC(F)(F)F)[C@@H](F)C1 [Compound 390B, 2-(5-{[(1-tert-butyl-1H-pyrazol-3-yl)amino]methyl}-1,2,4-oxadiazol-3-yl)-N-[(3S,4R)-3-fluoro-1-methylpiperidin-4-yl]-1-(2,2,2-trifluoroethyl)-1H-indol-4-amine]",* (* = 0 μM ≤ SC150 < 0.1 μM)
2,"COCC(C)(C)n1cc(C(=O)NCc2nc(-c3cc4c(N[C@@H]5CCN(C)C[C@@H]5F)cccc4n3CC(F)(F)F)no2)cn1 [Compound 391B, N-{[3-(4-{[(3S,4R)-3-fluoro-1-methylpiperidin-4-yl]amino}-1-(2,2,2-trifluoroethyl)-1H-indol-2-yl)-1,2,4-oxadiazol-5-yl]methyl}-1-(1-methoxy-2-methylpropan-2-yl)-1H-pyrazole-4-carboxamide]",* (* = 0 μM ≤ SC150 < 0.1 μM)
3,"CC(C)(C)N1CC[C@@H](Nc2cccc3c2cc(-c2noc(CNC(=O)c4ccn(C(C)(C)C)c4)n2)n3CC(F)(F)F)[C@@H](F)C1 [Compound 393B, 1-tert-butyl-N-{[3-(4-{[(3S,4R)-1-tert-butyl-3-fluoropiperidin-4-yl]amino}-1-(2,2,2-trifluoroethyl)-1H-indol-2-yl)-1,2,4-oxadiazol-5-yl]methyl}-1H-pyrrole-3-carboxamide]",* (* = 0 μM ≤ SC150 < 0.1 μM)
4,"CC(C)(C)N1CC[C@@H](Nc2cccc3c2cc(-c2noc(CNC(=O)c4ccn(C(C)(C)C)c4)n2)n3CC(F)(F)F)[C@H](F)C1 [Compound 394B, 1-tert-butyl-N-{[3-(4-{[(3R,4R)-1-tert-butyl-3-fluoropiperidin-4-yl]amino}-1-(2,2,2-trifluoroethyl)-1H-indol-2-yl)-1,2,4-oxadiazol-5-yl]methyl}-1H-pyrrole-3-carboxamide]",* (* = 0 μM ≤ SC150 < 0.1 μM)
5,"CN1CC[C@@H](Nc2cccc3c2cc(-c2noc(CNc4ccnn4C(C)(C)C)n2)n3CC(F)(F)F)[C@@H](F)C1 [Compound 396B, 2-(5-{[(1-tert-butyl-1H-pyrazol-5-yl)amino]methyl}-1,2,4-oxadiazol-3-yl)-N-[(3S,4R)-3-fluoro-1-methylpiperidin-4-yl]-1-(2,2,2-trifluoroethyl)-1H-indol-4-amine]",** (** = 0.1 μM ≤ SC150 < 0.5 μM)
6,"Cn1ccc(C(=O)NCc2nc(-c3cc4c(N[C@@H]5CCN(C(C)(C)C)C[C@@H]5F)cccc4n3CC(F)(F)F)no2)c1 [Compound 397B, N-{[3-(4-{[(3S,4R)-1-tert-butyl-3-fluoropiperidin-4-yl]amino}-1-(2,2,2-trifluoroethyl)-1H-indol-2-yl)-1,2,4-oxadiazol-5-yl]methyl}-1-methyl-1H-pyrrole-3-carboxamide]",* (* = 0 μM ≤ SC150 < 0.1 μM)
7,"Cn1ccc(C(=O)NCc2nc(-c3cc4c(N[C@H]5CCN(C(C)(C)C)C[C@H]5F)cccc4n3CC(F)(F)F)no2)c1 [Compound 398B, N-{[3-(4-{[(3R,4S)-1-tert-butyl-3-fluoropiperidin-4-yl]amino}-1-(2,2,2-trifluoroethyl)-1H-indol-2-yl)-1,2,4-oxadiazol-5-yl]methyl}-1-methyl-1H-pyrrole-3-carboxamide]",* (* = 0 μM ≤ SC150 < 0.1 μM)
8,"CN1CC[C@@H](Nc2cccc3c2cc(-c2noc(CNC(=O)c4ccn(C5(C)CCOC5)c4)n2)n3CC(F)(F)F)[C@@H](F)C1 (stereo partly drawn) [Compound 401B, N-{[3-(4-{[(3S,4R)-3-fluoro-1-methylpiperidin-4-yl]amino}-1-(2,2,2-trifluoroethyl)-1H-indol-2-yl)-1,2,4-oxadiazol-5-yl]methyl}-1-(3-methyloxolan-3-yl)-1H-pyrrole-3-carboxamide]",* (* = 0 μM ≤ SC150 < 0.1 μM)
9,"CN1CC[C@H](F)[C@H](Nc2cccc3c2cc(-c2noc(CNC(=O)c4ccn(C5(C)CCOCC5)c4)n2)n3CC(F)(F)F)C1 [Compound 403B, N-{[3-(4-{[(3R,4S)-4-fluoro-1-methylpiperidin-3-yl]amino}-1-(2,2,2-trifluoroethyl)-1H-indol-2-yl)-1,2,4-oxadiazol-5-yl]methyl}-1-(4-methyloxan-4-yl)-1H-pyrrole-3-carboxamide]",* (* = 0 μM ≤ SC150 < 0.1 μM)
10,"CN1CC[C@@H](Nc2cccc3c2cc(-c2noc(CNC(=O)c4cnn(C5(C)CCOCC5)c4)n2)n3CC(F)(F)F)[C@@H](F)C1 [Compound 404B, N-{[3-(4-{[(3S,4R)-3-fluoro-1-methylpiperidin-4-yl]amino}-1-(2,2,2-trifluoroethyl)-1H-indol-2-yl)-1,2,4-oxadiazol-5-yl]methyl}-1-(4-methyloxan-4-yl)-1H-pyrazole-4-carboxamide]",* (* = 0 μM ≤ SC150 < 0.1 μM)
11,"COCC(C)(C)n1cc(C(=O)NCc2nc(-c3cc4c(N[C@@H]5CCN(C(C)(C)C)C[C@@H]5F)cccc4n3CC(F)(F)F)no2)cn1 [Compound 412B, N-{[3-(4-{[(3S,4R)-1-tert-butyl-3-fluoropiperidin-4-yl]amino}-1-(2,2,2-trifluoroethyl)-1H-indol-2-yl)-1,2,4-oxadiazol-5-yl]methyl}-1-(1-methoxy-2-methylpropan-2-yl)-1H-pyrazole-4-carboxamide]",* (* = 0 μM ≤ SC150 < 0.1 μM)
12,"COCC(C)(C)n1cc(C(=O)NCc2nc(-c3cc4c(N[C@H]5CCN(C(C)(C)C)C[C@H]5F)cccc4n3CC(F)(F)F)no2)cn1 [Compound 413B, N-{[3-(4-{[(3R,4S)-1-tert-butyl-3-fluoropiperidin-4-yl]amino}-1-(2,2,2-trifluoroethyl)-1H-indol-2-yl)-1,2,4-oxadiazol-5-yl]methyl}-1-(1-methoxy-2-methylpropan-2-yl)-1H-pyrazole-4-carboxamide]",* (* = 0 μM ≤ SC150 < 0.1 μM)
13,"COCC(C)(C)n1ccc(C(=O)NCc2nc(-c3cc4c(N[C@@H]5CN(C)CC[C@@H]5F)cccc4n3CC(F)(F)F)no2)c1 [Compound 417B, N-{[3-(4-{[(3R,4S)-4-fluoro-1-methylpiperidin-3-yl]amino}-1-(2,2,2-trifluoroethyl)-1H-indol-2-yl)-1,2,4-oxadiazol-5-yl]methyl}-1-(1-methoxy-2-methylpropan-2-yl)-1H-pyrrole-3-carboxamide]",* (* = 0 μM ≤ SC150 < 0.1 μM)
